Results as given in patent publication US20160271072A1, “POLYMER NANOPARTICLES CONTAINING MULTIPLE AGENTS AND METHODS THEREOF” (THE UNIVERSITY OF NORTH CAROLINA AT CHAPEL HILL, priority 2013, published 2016).
pIC50: −log10 of the molar value.

What was measured:
A375-luc cells = experiment: Cell viability (MTS) and Chou-Talalay drug combination analysis in A375-luc cells; type: cell-based; conditions: single agent, free or in NP, 2 days drug exposure
Experimental: Cells were seeded in 96-well plates for 24 h at a density of 2×10^3 cells/well. Cell masses that were viable after 2 days of drug exposure were determined by MTS assay. A CellTiter 96 AQueous One Solution Cell Proliferation Assay (Promega, Madison, Wis.) kit containing the tetrazolium compound MTS was used to assay cell viability according to the manufacturer's protocols.
Drug combination analysis was performed by using the method described by Chou and Talalay.
We evaluated the degree of synergy between RAPA and CDDP in terms of cytotoxicity toward A375-luc cells in culture. […] The cytotoxicity of combined CDDP and RAPA was enhanced by NP delivery over free drug combination.

[1] = Serum biochemical value analysis, hematology and organ H&E; type: in vivo, mice; conditions: for blood cell counts (RBC, PLT, WBC, HCT, HGB) vs untreated control: healthy nude mice, three dosages; for ALT / AST / BUN / Creatinine: serum after three injections, n = 5
Experimental: After three injections, blood was collected and centrifuged at 4000 rpm for 5 min to obtain the serum. Blood urea nitrogen (BUN), creatinine, serum aspartate aminotransferase (AST) and alanine aminotransferase (ALT) levels, were assayed as indicators of renal and hepatic function. Whole blood was collected from healthy nude mice after three repeated treatments. Red blood cells (RBC), white blood cells (WBC), platelets (PLT), hemoglobin (HGB) and hematocrits (HCT) were counted for the detection of myelosuppression. Organs (heart, liver, spleen, lung, and kidney) were fixed and sectioned for H&E staining as to evaluate the organ-specific toxicity.

[2] = Drug loading and encapsulation efficiency of cores and PLGA NPs; type: physicochemical; conditions: DOPA coated cores encapsulated separately, DL up to approximately 5 wt %; n=5
Experimental: The loading and encapsulation efficiency of Rapamycin was measured using High-performance Liquid Chromatography (HPLC, Waters, λ=277 nm); the loading and encapsulation efficiency of CDDP was measured using Inductively Coupled Plasma-Mass Spectroscopy (ICP-MS, NexION™ 300, Perkin Elmer Inc); the loading efficiency of GMP was measured both by Ultraviolet-visible spectrometer (UV, DU®800, Beckman Coulter) and ^3H labeled CMP incorporation using a Liquid Scintillation Analyzer (TRI-CARB 2900 TR, Packard Bioscience Co). The size distribution of particle was determined using a Malvern ZetaSizer Nano series (Westborough, Mass.). TEM images of NPs were acquired using a JEOL 100CX II TEM (JEOL, Japan). The NPs were negatively stained with 2% uranyl acetate. Approximately 100 NPs were analyzed for calculating the average number of CDDP cores per PLGA NP.
DL and EE of cisplatin were measured using Inductively Coupled Plasma-Mass Spectroscopy (ICP-MS, NexION™ 300, Perkin Elmer Inc); LE and EE of GMP were both measured by Ultraviolet-Visible Spectroscopy (UV, DU®800, Beckman Coulter) and ^3H labeled cytidine 5′ monophosphate (CMP) [5-^3H] disodium salt (Moravek Bio Inc, 1 mCi/mL) incorporation using a Liquid Scintillation Analyzer (TRI-CARB 2900 TR, Packard Bioscience Co). The size distribution of particles was determined using a Malvern ZetaSizer Nano series (Westborough, Mass.). […]

[3] = test system: stroma-rich UMUC3 bladder cancer xenograft; experiment: Anti-tumor efficacy in stroma-rich UMUC3 bladder cancer xenografts (TUNEL, PCNA, Pt-DNA adduct, western blot); type: in vivo, mice; conditions: tumor lysates after three doses
UMUC3 cells = experiment: MTT cell viability and combination index on UMUC3 cells; type: cell-based, human; conditions: 48 h treatment
Experimental: MTT (3-[4,5-dimethylthiazol-2-yl]-2,5-diphenyltetrazolium bromide) assay was conducted to detect in vitro viability of free GMP, cisplatin and their combinations as well as PLGA GMP NP, PLGA cisplatin NP and PLGA Combo NP. In Brief, cells were seeded in 96-well plates with a density of 3,000 cells per well 24 h prior to drug treatment. On the second day, cells were treated with free drugs or the drug combination at a series of dilutions with various molar ratios. Forty-eight h post treatment, 20 μL of MTT (5 mg/mL) reagent was added for another 4 h at 37° C. The medium was then discarded and the formed formazan salt was dissolved in 150 μL of DMSO. The absorbance in each well was read at the wavelength of 570 nm using a multidetection microplate reader (Plate […]). Each concentration was tested in five wells and data presented as mean±SD. […] Combination Index (CI) Analysis of free drug combination based on the Chou and Talalay method (T. C. Chou, P. Talalay, Adv. Enzyme Regul. 1984, 22, 27) was conducted using CompuSyn software. Briefly, for each level of Fa, the CI values of cisplatin and GMP combinations were calculated according to the following equation: […] CI values of the drug combinations were drawn as a function of Fa. […] (Y. Han, Z. He, […]. Bronich, R. Jordan, […], Mol. Pharm. 2012, 9, 2302).

| Molecule | pIC50 (A375-luc cells) | blood cell counts (RBC, PLT, WBC, HCT, HGB) vs untreated control [1] | ALT [1] | AST [1] | BUN [1] | Creatinine [1] | EE into PLGA NP [2] | pIC50 (A375-luc cells; 48 h) | expression of ERCC1 and XPA (western blot) [3] | pIC50 (UMUC3 cells) |
| --- | --- | --- | --- | --- | --- | --- | --- | --- | --- | --- |
| [NH2][Pt]([NH2])([Cl])[Cl] [CDDP, cisplatin] | 5.00 | significantly reduced | 59 ± 1 U/L | 216 ± 15 U/L | 25 ± 1 mg/dL | 0.2 mg/dL | 74.0±10.1% |  |  |  |
| CO[C@H]1C[C@@H]2CC[C@@H](C)[C@@](O)(O2)C(=O)C(=O)N2CCCC[C@H]2C(=O)O[C@H]([C@H](C)C[C@@H]2CC[C@@H](O)[C@H](OC)C2)CC(=O)[C@H](C)/C=C(\C)[C@@H](O)[C@@H](OC)C(=O)[C@H](C)C[C@H](C)/C=C/C=C/C=C/1C [RAPA, rapamycin] |  |  |  |  |  |  |  | 4.80 |  |  |
| Gemcitabine monophosphate [GMP] |  | significantly reduced | 47 ± 3 U/L | 122 ± 20 U/L | 24 ± 2 mg/dL | 0.2 mg/dL | 70.6±2.5% |  | down-regulation | 4.46 |
